Measurements from US9624502B2, “Methods of controlling plant seed and organ size” (PLANT BIOSCIENCE LIMITED, priority 2007, dated 2017).
Where a SMILES comes first, the peptide text is derived from it. The star is where a group is joined. Cbz = O=C(OCc1ccccc1)*

Columns and labels:
proteasome = experiment: Stability of DA1 protein in cell-free Arabidopsis protein extracts with ATP, Western analysis; assay type: biochemical; conditions: GST-DA1 incubated with Arabidopsis protein extracts and ATP; Western with DA1 antibody
Protocol: This is supported by the observation that detection of DA1 protein with a good specific antibody in plant extracts is very difficult. We therefore tested the stability of DA1 protein in Arabidopsis using DA1 protein expressed in E. coli and cell-free protein extracts from Arabidopsis. Full length DA1 protein expressed and purified as an N-terminal GST fusion protein, was incubated with Arabidopsis protein extracts and ATP, and subjected to Western analysis using a specific DA1 antibody. […] The UIM motifs of DA1 are predicted, based on knowledge of UIM function in animal cells, to be involved in ubiqutination. It may be that DA1 is ubiquitinated and targeted for degradation as part of the mechanism of growth control.

da1-1 mutant seedlings = experiment: Seedling establishment and growth on MS medium with ABA, da1-1 mutant; assay type: in vivo, Arabidopsis thaliana
From the text: (§1) (A) DA1 gene structure, showing the mutated sites of da1-1, sod1-1, sod1-2, and sod1-3 alleles. The start codon (ATG) and the stop codon (TGA) are indicated. Closed boxes indicate the coding sequence and lines between boxes indicate introns. T-DNA insertion sites (da1-ko1, da1-ko2 and da1-ko3) in DA1 gene are shown. (B to G) DA1 promoter activity monitored by pDA1::GUS transgene expression. GUS staining in seedlings (B and C), an embryo (D), roots (E), and petals (F and G). (H and I) The flowers of Col-0 (H) and da1-ko1dar1-1 double mutant (I). (J) Siliques of Col-0 (left) and da1-ko1dar1-1 double mutant (right). (K) Petal area of Col-0, da1-ko1, dar1-1, da1-ko1dar1-1 double mutants. […] 7 d-old WT seedlings were treated with 10 μm ABA for 2, 4, 6, 18 and 30 hours. (M and N) Wild type Col-0 and da1-1 seeds were grown on MS medium with 2 μm ABA under constant light conditions. […] Scale bars: 1 mm (B, H, I, M, and N), 50 μm (C and E), 0.5 mm (C and J), 0.1 mm (F and G), 0.5 cm (0).
(§2) Relatively high levels of GUS activity were detected in proliferating tissues (FIG. 3c-f). In addition, the DA1 promoter is also active in roots (FIG. 3b, c). Given the effects of hormones on organ growth, we tested whether any major classes of phytohormones (abscisic acid, jasmonic acid, ethylene, auxin, cytokinin, gibberellin, brassinosteroids and glucose) could influence transcription of DA1 gene. […]

DA1 gene = DA1 gene expression after phytohormone treatment, quantitative RT-PCR; assay type: in vivo, Arabidopsis thaliana
From the text: as §1, §2

[1] = test system: wild type Col-0 seedlings; experiment: Seedling growth on MS medium with ABA, wild type; assay type: in vivo, Arabidopsis thaliana; conditions: 4 d-old seedlings transferred to MS medium with 5 μm ABA for 3 weeks
From the text: as §1

**Q.** `CC(C)C[C@@H](C=O)NC(=O)[C@H](CC(C)C)NC(=O)[C@H](CC(C)C)NC(=O)OCc1ccccc1` [MG132] (Cbz-Leu-Leu-Leu-aldehyde) was tested. Which “effect on degradation of DA1 protein” value (proteasome) did it give?
**A.** abolish this degradation

**Q.** What does the source list for `CC1=CC(=O)CC(C)(C)[C@@]1(O)/C=C/C(C)=C\C(=O)O` [ABA, abscisic acid]?
**A.** growth of da1-1 mutant seedlings (da1-1 mutant seedlings; 4 d-old seedlings transferred to MS medium with 5 μm ABA for 3 weeks): continue to grow; seedling establishment of da1-1 mutant (da1-1 mutant seedlings; seeds grown on MS medium with 2 μm ABA under constant light): ABA-insensitive seedling establishment; expression of DA1 (DA1 gene; 7 d-old WT seedlings treated with 10 μm ABA for 2, 4, 6, 18 and 30 hours, quantitative RT-PCR): slowly induced; expression level of the DA1 gene (transcription) after phytohormone treatment (DA1 gene; major classes of phytohormones tested): induced slowly; growth of wild type Col-0 seedlings [1]: inhibit the growth
